Laboratory results published in patent US8980926B2, “2-aminoindole compounds and methods for the treatment of malaria” (Genzyme Corporation, priority 2009, dated 2015).
Read-outs that look alike come from different tables or passages of the source.

Columns and labels:
[1] = tested on: Plasmodium falciparum strain Dd2; experiment: In vitro potency against P. falciparum strain Dd2; type: cell-based; conditions: read-out: Potency (IC50; nM) Plasmodium spp. Pf Dd2
[2] = tested on: P. berghei N-clone; experiment: In vivo efficacy against P. berghei in mice (4-day suppressive test, oral); parameters: species or system P. berghei in Swiss Albino mice; conditions: for No. Cured: animals cured/group; for % Suppression Day 5: vs untreated controls
Text: Because of ethical issues and costs, the acute P. berghei model in rodents is considered the “gold standard” for assessing anti-malarial efficacy in animal models. This model is adapted from Peters' “4-day suppressive test” (Peters, W. 1987. Chemotherapy and Drug Resistance in Malaria, p. 102-115, 2ed, vol. 1. Academic Press, Orlando, Fla.; Peters, W. 1975. The chemotherapy of rodent malaria, XXII. The value of drug-resistant strains of P. berghei in screening for blood schizontocidal activity. Ann Trop Med Parasitol 69:155-171). All studies were conducted in accordance with the Guide for the Care and Use of Laboratory Animals (National-Research-Council. 1996. Guide for the Care and Use of Laboratory Animals. National Academy Press, Washington, D.C.) and the PHS guidelines. Animals were maintained according to NIH guidelines and were allowed to acclimatize for 1 week prior to the commencement of studies. On Day 0, groups of 4-6-week old female Swiss Albino mice (n=5) were infected by tail vein injection with 0.2 ml heparinized blood diluted to contain 1×10^7 N-clone parasites. The aminoindole analogs were formulated in 1.6% lactic acid mixed sodium salt, 1% Tween 80, 9% ethanol and 20% Cerestar (hydroxypropyl β-cyclodextrin; Wacker Chimie) and were administered by oral gavage. […] Animals in the Control-group received vehicle alone. Dose concentration and frequency of dosing were based upon preliminary tolerability/exposure studies. On Day 4 post-infection (5th day of assay) blood was collected by tail-nick, and thin smear microscope slides were prepared and stained using Diff Quick®. Parasitized erythrocytes were counted and compared with the total number of erythrocytes per microscopic field to determine the percent parasitemia. A minimum of 350 erythrocytes were counted. Animals showing no detectable parasites on Day 4 were examined every 2-3 days to determine whether cure was sterile. Animals with no detectable parasites 28 days after cessation of dosing (Study Day 33) were considered cured.

[3] = Mammalian cytotoxicity, dermal fibroblast; type: cell-based; conditions: human, normal human dermal fibroblasts (Clonetics #CC-2509); read-out: Selectivity, Mammalian cytotoxicity (IC50; μM) Dermal Fibroblast
[4] = tested on: P. falciparum strain 3D7; experiment: In vitro potency against P. falciparum strain 3D7 (SYBR green/DAPI); type: cell-based; conditions: Plasmodium falciparum
[5] = tested on: P. berghei ANKA strain; experiment: In vitro potency against P. berghei ANKA; type: cell-based; conditions: Plasmodium berghei, read-out: Potency (IC50; nM) Plasmodium spp. Pb ANKA
[6] = Mammalian cytotoxicity, kidney epithelial; type: cell-based; conditions: normal human renal proximal tubule cells; read-out: Selectivity, Mammalian cytotoxicity (IC50; μM) Kidney epithelial
[7] = Erythrocyte lysis; type: cell-based; conditions: erythrocytes, read-out: Selectivity, Mammalian cytotoxicity (IC50; μM) Eryth. Lysis
[8] = read-out: Potency (IC50; nM) Plasmodium spp. Pf 3D7
[9] = reductions in parasitemia, read-out: IC50 values

SMILES	IC50 [4, 9] [nM]	other results
COc1cnc(Cl)cc1C1(O)C(N)=Nc2ccc(Cl)cc21 (stereo not drawn) [Compound 221]	100 to 500	
Cn1cc(F)c2c(C3(O)C(N)=Nc4ccc(Cl)cc43)cccc21 (stereo not drawn) [Compound 226]	100 to 500	
CC(C)C1(O)C(N)=Nc2cccc(Cl)c21 (stereo not drawn) [Compound 227]	100 to 500	
NC1=Nc2ccccc2C1(O)CC12CC3CC(CC(C3)C1)C2 (stereo not drawn) [Compound 229]	100 to 500	
CC(C)C1(O)C(N)=Nc2cc(Cl)ccc21 (stereo not drawn) [Compound 230]	100 to 500	
Cc1ccc2c(c1)C(O)(C(C)C)C(N)=N2 (stereo not drawn) [Compound 231]	100 to 500	
COc1cc(C2(O)C(N)=Nc3ccc(Cl)cc32)c(F)cn1 (stereo not drawn) [Compound 233]	100 to 500	
CN(C)c1ncccc1C1(O)C(N)=Nc2ccc(Cl)cc21 (stereo not drawn) [Compound 236]	100 to 500	
NC1=Nc2ccc(Cl)cc2C1(O)C#Cc1ccccc1 (stereo not drawn) [Compound 237]	1000 to 5000	
COc1ncccc1C1(O)C(N)=Nc2ccc(Cl)cc21 (stereo not drawn) [Compound 239]	100 to 500	
Cn1c(C2(O)C(N)=Nc3ccc(Cl)cc32)nc2cc(Br)ccc21 (stereo not drawn) [Compound 241]	100 to 500	
CCOc1ccc(Cl)cc1C1(O)C(N)=Nc2ccc(C)cc21 (stereo not drawn) [Compound 244]	1 to 100	
Cc1ccc2c(c1)C(O)(c1cc(Cl)ccc1OC(C)C)C(N)=N2 (stereo not drawn) [Compound 245]	1 to 100	
CC(C)[C@]1(O)C(N)=Nc2ccc(Cl)cc21 [Compound 246]	100 to 500	
CC(C)[C@@]1(O)C(N)=Nc2ccc(Cl)cc21 [Compound 247]	100 to 500	
CC(C)(C)Oc1ccccc1C1(O)C(N)=Nc2ccc(Cl)cc21 (stereo not drawn) [Compound 248]	1 to 100	
CCOc1ccc(F)cc1C1(O)C(N)=Nc2ccc(C)cc21 (stereo not drawn) [Compound 249]	1 to 100	
CCOc1cc(F)c(F)cc1C1(O)C(N)=Nc2ccc(Cl)cc21 (stereo not drawn) [Compound 250]	1 to 100	
CCOc1cc(F)ccc1C1(O)C(N)=Nc2ccc(C)cc21 (stereo not drawn) [Compound 251]	1 to 100	
Cn1cc2cc(Cl)cc(C3(O)C(N)=Nc4ccc(Cl)cc43)c2n1 (stereo not drawn) [Compound 252]	1 to 100	

SMILES	IC50 [4, 9] [nM]	other results
COc1ccc2c(c1)C(O)(c1cc(Cl)ccc1C1CC1)C(N)=N2 (stereo not drawn) [Compound 253]	1 to 100	
COc1cnc(OC)c(C2(O)C(N)=Nc3ccc(C)cc32)c1 (stereo not drawn) [Compound 254]	1 to 100	
CCOc1cc(F)c(F)cc1C1(O)C(N)=Nc2ccc(C)cc21 (stereo not drawn) [Compound 255]	1 to 100	
Cc1ccc2c(c1)C(O)(c1ccccc1C1CC1)C(N)=N2 (stereo not drawn) [Compound 256]	1 to 100	
Cc1ccc2c(c1)C(O)(c1cccc3ccccc13)C(N)=N2 (stereo not drawn) [Compound 257]	1 to 100	
Cn1ncc2cc(Cl)cc(C3(O)C(N)=Nc4ccc(Cl)cc43)c21 (stereo not drawn) [Compound 258]	1 to 100	
CCOc1cc(Cl)ccc1C1(O)C(N)=Nc2ccc(Cl)cc21 (stereo not drawn) [Compound 259]	1 to 100	
CCOc1ccc(C2(O)C(N)=Nc3ccc(Cl)cc32)c(Cl)c1 (stereo not drawn) [Compound 260]	100 to 500	
Cc1ccc2c(c1)C(O)(c1cc(Cl)ccc1OC(C)(C)C)C(N)=N2 (stereo not drawn) [Compound 261]	1 to 100	
Cc1ccc2c(c1)C(O)(c1cc(Cl)ccc1C1CC1)C(N)=N2 (stereo not drawn) [Compound 262]	1 to 100	
COc1cc(C2(O)C(N)=Nc3ccc(Cl)cc32)c2ccccc2n1 (stereo not drawn) [Compound 263]	1 to 100	
NC1=Nc2ccccc2C1(O)c1cc(F)cc2ccccc12 (stereo not drawn) [Compound 264]	100 to 500	
CCOc1cc(F)c(Cl)cc1C1(O)C(N)=Nc2ccc(C)cc21 (stereo not drawn) [Compound 265]	1 to 100	
Cc1ccc2c(c1)C(O)(c1cc(F)cc3ccccc13)C(N)=N2 (stereo not drawn) [Compound 268]	1 to 100	
COc1ccc2c(c1)C(O)(c1cc(F)cc3ccccc13)C(N)=N2 (stereo not drawn) [Compound 269]	1 to 100	
Cc1ccc2c(c1)C(O)(c1cc(Cl)cnc1N(C)C)C(N)=N2 (stereo not drawn) [Compound 270]	1 to 100	
COc1cc(C2(O)C(N)=Nc3ccc(Cl)cc32)c2c(cnn2C)c1 (stereo not drawn) [Compound 271]	100 to 500	
Cn1ccc2cc(F)cc(C3(O)C(N)=Nc4ccc(Cl)cc43)c21 (stereo not drawn) [Compound 272]	100 to 500	
Cc1ccc2c(c1)C(O)(c1cc(Cl)cc3ccccc13)C(N)=N2 (stereo not drawn) [Compound 273]	1 to 100	

More lines, main results first:

IC50 [4, 9] [nM]	SMILES	other results
1 to 100	CCOc1ccc(F)cc1[C@]1(O)C(N)=Nc2ccc(Cl)cc21 (stereo in doubt) [Compound 266]	IC50 [1]: 58 nM; No. Cured ([2]; 100 mg/kg/day b.i.d. p.o.): 0/5; % Suppression Day 5 ([2]; 100 mg/kg/day b.i.d. p.o.): 81%; IC50 [3]: > 195 µM; IC50 [4, 8]: 18 nM; IC50 [5]: 342 nM; IC50 [6]: > 195 µM; IC50 [7]: > 125 µM
1 to 100	NC1=Nc2ccc(Cl)cc2C1(O)c1cccc2ccccc12 (stereo not drawn) [Compound 11]	IC50 [1]: 37 nM; IC50 [3]: 24 µM; IC50 [4, 8]: 30 nM; IC50 [6]: 24 µM; IC50 [7]: > 129 µM
1 to 100	NC1=Nc2ccc(Cl)cc2C1(O)Cc1ccccc1 (stereo not drawn) [Compound 38]	IC50 [1]: 110 nM; IC50 [3]: > 62.5 µM; IC50 [4, 8]: 38 nM; IC50 [6]: > 62.5 µM; IC50 [7]: > 147 µM
1 to 100	COc1cc(C2(O)C(N)=Nc3ccc(Cl)cc32)c(OC)cn1 (stereo not drawn) [Compound 202]	IC50 [1]: 81 nM; No. Cured ([2]; 100 mg/kg/day b.i.d. p.o.): 0/5; % Suppression Day 5 ([2]; 100 mg/kg/day b.i.d. p.o.): 95%; Average Day of Recrudescence ([2]; 200 mg/kg/day b.i.d. p.o., Study Day): 17 days; No. Cured ([2]; 200 mg/kg/day b.i.d. p.o.): 0/5; Recrudescence (no. animals/total) ([2]; 200 mg/kg/day b.i.d. p.o., no parasites on Day 5 but later regressed): 2/5; % Suppression Day 5 ([2]; 200 mg/kg/day b.i.d. p.o.): 98%; IC50 [3]: > 195 µM; IC50 [4, 8]: 21 nM; IC50 [6]: > 195 µM; IC50 [7]: > 125 µM
1 to 100	NC1=Nc2ccc(Cl)cc2C1(O)c1ccccc1OC1CC1 (stereo not drawn) [Compound 216]	
1 to 100	COc1cc(F)c(C2(O)C(N)=Nc3ccc(Cl)cc32)cc1OC (stereo not drawn) [Compound 217]	
1 to 100	CCCOc1cnc(OC)c(C2(O)C(N)=Nc3ccc(Cl)cc32)c1 (stereo not drawn) [Compound 218]	
1 to 100	NC1=Nc2ccc(Cl)cc2C1(O)c1cc(Cl)ccc1OC1CC1 (stereo not drawn) [Compound 219]	
1 to 100	CCCOc1cnc(OC)cc1C1(O)C(N)=Nc2ccc(Cl)cc21 (stereo not drawn) [Compound 220]	
1 to 100	CC(C)Oc1ccccc1[C@]1(O)C(N)=Nc2ccc(Cl)cc21 [Compound 222]	
1 to 100	CC(C)Oc1ccccc1[C@@]1(O)C(N)=Nc2ccc(Cl)cc21 [Compound 223]	
1 to 100	CCOc1cnc(Cl)cc1C1(O)C(N)=Nc2ccc(Cl)cc21 (stereo not drawn) [Compound 224]	
1 to 100	CCOc1cc(F)ccc1C1(O)C(N)=Nc2ccc(Cl)cc21 (stereo not drawn) [Compound 225]	
1 to 100	CCOc1cc(C2(O)C(N)=Nc3ccc(Cl)cc32)c(OC)cn1 (stereo not drawn) [Compound 228]	
1 to 100	NC1=Nc2ccc(Cl)cc2C1(O)c1cc(F)ccc1OC1CC1 (stereo not drawn) [Compound 232]	
1 to 100	CCN(CC)c1ccccc1C1(O)C(N)=Nc2ccc(Cl)cc21 (stereo not drawn) [Compound 234]	
1 to 100	COc1ncc(Cl)cc1C1(O)C(N)=Nc2ccc(Cl)cc21 (stereo not drawn) [Compound 238]	
1 to 100	CCOc1ncc(Cl)cc1C1(O)C(N)=Nc2ccc(Cl)cc21 (stereo not drawn) [Compound 242]	
1 to 100	CCOc1cc(C2(O)C(N)=Nc3ccc(Cl)cc32)c(Cl)cn1 (stereo not drawn) [Compound 243]	
